Assay results taken from patent US20230080054A1 (ILDONG PHARMACEUTICAL CO., LTD., priority 2021, published 2023).

Biological target: T1, human ANO6 (Homo sapiens, UniProt Q4KMQ2)
T1 construct: expressed in transfected cells
T1 sequence (Q4KMQ2 1-931 isoform Q4KMQ2-2): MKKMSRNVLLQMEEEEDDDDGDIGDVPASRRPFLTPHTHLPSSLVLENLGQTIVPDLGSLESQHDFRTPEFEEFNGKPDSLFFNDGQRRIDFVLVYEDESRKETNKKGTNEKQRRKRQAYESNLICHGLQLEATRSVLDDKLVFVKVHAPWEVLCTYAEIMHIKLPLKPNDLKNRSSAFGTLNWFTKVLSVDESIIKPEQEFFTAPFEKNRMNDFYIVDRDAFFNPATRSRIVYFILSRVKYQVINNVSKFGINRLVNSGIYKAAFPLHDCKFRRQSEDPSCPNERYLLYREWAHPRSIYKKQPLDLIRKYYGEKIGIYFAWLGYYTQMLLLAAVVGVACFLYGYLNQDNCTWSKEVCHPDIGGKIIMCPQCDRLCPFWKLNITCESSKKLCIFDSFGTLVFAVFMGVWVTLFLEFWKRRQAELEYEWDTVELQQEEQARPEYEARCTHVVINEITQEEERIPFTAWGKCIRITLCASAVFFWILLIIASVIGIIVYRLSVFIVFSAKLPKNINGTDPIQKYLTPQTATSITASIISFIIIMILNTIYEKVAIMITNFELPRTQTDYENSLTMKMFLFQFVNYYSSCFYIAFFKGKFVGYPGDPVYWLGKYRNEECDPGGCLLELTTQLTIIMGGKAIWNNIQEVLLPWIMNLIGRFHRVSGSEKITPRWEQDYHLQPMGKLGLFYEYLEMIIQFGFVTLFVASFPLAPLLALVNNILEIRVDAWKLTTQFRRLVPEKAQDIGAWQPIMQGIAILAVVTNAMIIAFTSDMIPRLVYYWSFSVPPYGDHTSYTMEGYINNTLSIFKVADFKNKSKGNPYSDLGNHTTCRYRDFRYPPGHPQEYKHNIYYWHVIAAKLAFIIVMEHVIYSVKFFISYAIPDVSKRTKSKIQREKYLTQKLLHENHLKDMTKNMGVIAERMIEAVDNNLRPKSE
Experiment: LACT C2 assay (phosphatidylserine scramblase function assay)
Format: cell-based
Conditions: FRT cells expressing human ANO6, 10 μM ionomycin; for inhibition at 0.1 µM: test compound 100 nM, read-out: Inhibition Level 100 nM; for inhibition at 1 µM: test compound 1 μM, read-out: Inhibition Level 1 μM
From the text: Phosphatidylserine Scramblase Function Assay
1. Materials and Instruments
Ionomycin (Alomonelab, cat. #I-700), DAPI (Sigma-Aldrich, cat. #D8417), paraformaldehyde (Biosesang, cat. #P2031), Lionheart FX Automated Microscope (BioTek, Winooski), Python3 (Python Software Foundation), and OpenCV (Open Source Computer Vision Library).
Fisher rat thyroid (FRT) cells stably expressing human ANO6 (GenBank accession no. NP_001191732.1, provided by J. H. Nam, Dongguk University College of Medicine, Korea) were grown in DMEM/Ham's F-12 (1:1) medium with 10% FBS, 2 mM L-549 glutamine, 100 units/mL penicillin, and 100 μg/mL streptomycin at 37° C. and 5% CO2.
FRT cells stably expressing human ANO6 were plated in 96 well black-walled microplates at a density of 2×10^4 cells/well. After 24 hours incubation, cells were treated with the test compound (dissolved in DMSO) were treated to each well to become 1% v/v DMSO for 10 minutes, then 10 μM of ionomycin was applied. Finally each well was washed with 200 μL PBS after 10 minutes. After washout, the phosphatidylserine and nuclei were stained with PBS containing 500 nM Lactadherin-C2 (Lact-C2)-GFP, then cells were washed with 200 μL PBS. Cells were fixed with 4% paraformaldehyde for 5 minutes at room temperature. For morphological analysis, some cells were stained with fluorescently labelled DAPI for 15 minutes at room temperature. Quantitative analysis of the fluorescence intensity of Lact-C2-GFP was performed with Python3 and OpenCV. OpenCV was used to remove background and noise pixels, and the sum of all remaining pixel values was used to evaluate the fluorescence intensity of Lact-C2-GFP.
The inhibitory activity (%) of each of the test compounds was obtained by the following steps. In each row of 96 well plate, the inhibitory activity of each of the test compounds was calculated as percentages. The inhibitory activity of a negative control group to which neither compounds nor ionomycin were treated was set to be 100%, and the inhibitory activity of a positive control group to which ionomycin was treated and compounds were not treated was set to be 0%. The assay was performed in triplicate, and the results were averaged.

SMILES	inhibition at 0.1 µM	inhibition at 1 µM
O=C(Nc1cccc(F)c1)c1cccc(NC2CCC(c3ccccc3)CC2)c1 (single isomer, unassigned) [Compound 188, N-(3-fluorophenyl)-3-((4-phenylcyclohexyl)amino)benzamide]	< 30%	–
COC(=O)c1ccc(CCNC(=O)c2cccc(Nc3ncc(-c4cccc(F)c4)cn3)c2)cc1 [Compound 126, methyl 4-(2-(3-((5-(3-fluorophenyl)pyrimidin-2-yl)amino)benzamido)ethyl)benzoate]	–	< 30%
COC(=O)c1ccccc1CCNC(=O)c1cccc(Nc2ncc(-c3cccc(F)c3)cn2)c1 [Compound 127, methyl 2-(2-(3-((5-(3-fluorophenyl)pyrimidin-2-yl)amino)benzamido)ethyl)benzoate]	< 30%	< 30%
O=C(O)c1cccc(CCNC(=O)c2cccc(Nc3ncc(-c4cccc(F)c4)cn3)c2)c1 [Compound 129, 3-(2-(3-((5-(3-fluorophenyl)pyrimidin-2-yl)amino)benzamido)ethyl)benzoic acid]	< 30%	< 30%
O=C(O)c1ccc(CCNC(=O)c2cccc(Nc3ncc(-c4cccc(F)c4)cn3)c2)cc1 [Compound 130, 4-(2-(3-((5-(3-fluorophenyl)pyrimidin-2-yl)amino)benzamido)ethyl)benzoic acid]	< 30%	< 30%
O=C(N[C@@H]1C[C@H]1c1ccc(Cl)c(F)c1)c1cccc(Nc2ncc(-c3cccc(F)c3)cn2)c1 [Compound 131, N-((1R,2S)-2-(4-chloro-3-fluorophenyl)cyclopropyl)-3-((5-(3-fluorophenyl)pyrimidin-2-yl)amino)benzamide]	< 30%	≥ 60%
O=C(NCCc1ccccc1C(=O)O)c1cccc(Nc2ncc(-c3cccc(F)c3)cn2)c1 [Compound 132, 2-(2-(3-((5-(3-fluorophenyl)pyrimidin-2-yl)amino)benzamido)ethyl)benzoic acid]	< 30%	< 30%
O=C(NC1(c2ccccc2)CC1)c1cccc(Nc2ncc(-c3cccc(F)c3)cn2)c1 [Compound 133, 3-((5-(3-fluorophenyl)pyrimidin-2-yl)amino)-N-(1-phenylcyclopropyl)benzamide]	< 30%	30 to 60%
O=C(NC1(c2ccccc2)CC1)c1cccc(Nc2ccc(-c3cccc(F)c3)cn2)c1 [Compound 134, 3-((5-(3-fluorophenyl)pyridin-2-yl)amino)-N-(1-phenylcyclopropyl)benzamide]	< 30%	30 to 60%
CN1CCN(Cc2ccc(NC(=O)c3cccc(Nc4ncc(-c5cccc(F)c5)cn4)c3)cc2)CC1 [Compound 135, 3-((5-(3-fluorophenyl)pyrimidin-2-yl)amino)-N-(4-((4-methylpiperazin-1-yl)methyl)phenyl)benzamide]	< 30%	30 to 60%
N#Cc1cccc(NC(=O)c2cccc(Nc3ncc(-c4cccc(F)c4)cn3)c2)c1 [Compound 136, N-(3-cyanophenyl)-3-((5-(3-fluorophenyl)pyrimidin-2-yl)amino)benzamide]	< 30%	≥ 60%
O=C(Nc1cccc([N+](=O)[O-])c1)c1cccc(Nc2ncc(-c3cccc(F)c3)cn2)c1 [Compound 137, 3-((5-(3-fluorophenyl)pyrimidin-2-yl)amino)-N-(3-nitrophenyl)benzamide]	< 30%	≥ 60%
O=C(Nc1nccs1)c1cccc(Nc2ncc(-c3cccc(F)c3)cn2)c1 [Compound 138, 3-((5-(3-fluorophenyl)pyrimidin-2-yl)amino)-N-(thiazol-2-yl)benzamide]	< 30%	≥ 60%
CN1CCC(CCNC(=O)c2cccc(Nc3ccc(-c4cccc(F)c4)cn3)c2)CC1 [Compound 139, 3-((5-(3-fluorophenyl)pyridin-2-yl)amino)-N-(2-(1-methylpiperidin-4-yl)ethyl)benzamide]	< 30%	< 30%
CN1CCC(CNC(=O)c2cccc(Nc3ccc(-c4cccc(F)c4)cn3)c2)CC1 [Compound 140, 3-((5-(3-fluorophenyl)pyridin-2-yl)amino)-N-((1-methylpiperidin-4-yl)methyl)benzamide]	< 30%	< 30%
Nc1ccccc1NC(=O)c1cccc(Nc2ccc(-c3cccc(F)c3)cn2)c1 [Compound 143, N-(2-aminophenyl)-3-((5-(3-fluorophenyl)pyridin-2-yl)amino)benzamide]	< 30%	30 to 60%
CN1CCC(C2CC2NC(=O)c2cccc(Nc3ccc(-c4cccc(F)c4)cn3)c2)CC1 (stereo not drawn) [Compound 144, 3-((5-(3-fluorophenyl)pyridin-2-yl)amino)-N-(2-(1-methylpiperidin-4-yl)cyclopropyl)benzamide]	< 30%	< 30%
CN1CCC(CNC(=O)c2cccc(Nc3ccc(-c4cccc(F)c4)cn3)c2)C1 (stereo not drawn) [Compound 145, 3-((5-(3-fluorophenyl)pyridin-2-yl)amino)-N-((1-methylpyrrolidin-3-yl)methyl)benzamide]	< 30%	< 30%
Nc1ccc(NC(=O)c2cccc(Nc3ccc(-c4cccc(F)c4)cn3)c2)cc1 [Compound 146, N-(4-aminophenyl)-3-((5-(3-fluorophenyl)pyridin-2-yl)amino)benzamide]	< 30%	30 to 60%
Nc1cccc(CCNC(=O)c2cccc(Nc3ncc(-c4cccc(F)c4)cn3)c2)c1 [Compound 147, N-(3-aminophenethyl)-3-((5-(3-fluorophenyl)pyrimidin-2-yl)amino)benzamide]	< 30%	< 30%
Nc1ccccc1CCNC(=O)c1cccc(Nc2ncc(-c3cccc(F)c3)cn2)c1 [Compound 148, N-(2-aminophenethyl)-3-((5-(3-fluorophenyl)pyrimidin-2-yl)amino)benzamide]	< 30%	< 30%
O=C(N[C@@H]1C[C@H]1c1ccccc1)c1ccnc(Nc2ccc(-c3ccccc3)cn2)c1 [Compound 149, N-((1R,2S)-2-phenylcyclopropyl)-2-((5-phenylpyridin-2-yl)amino)isonicotinamide]	< 30%	≥ 60%
Cc1c(C2CC2NC(=O)c2cccc(Nc3ncc(-c4cccc(F)c4)cn3)c2)cnn1C (stereo not drawn) [Compound 150, N-(2-(1,5-dimethyl-1H-pyrazol-4-yl)cyclopropyl)-3-((5-(3-fluorophenyl)pyrimidin-2-yl)amino)benzamide]	< 30%	< 30%
Cc1ccc(CCNC(=O)c2cccc(Nc3ncc(-c4cccc(F)c4)cn3)c2)o1 [Compound 151, 3-((5-(3-fluorophenyl)pyrimidin-2-yl)amino)-N-(2-(5-methylfuran-2-yl)ethyl)benzamide]	< 30%	< 30%
Cc1c(C2CC2NC(=O)c2cccc(Nc3ncc(-c4ccccc4)cn3)c2)cnn1C (stereo not drawn) [Compound 152, N-(2-(1,5-dimethyl-1H-pyrazol-4-yl)cyclopropyl)-3-((5-phenylpyrimidin-2-yl)amino)benzamide]	< 30%	< 30%
